Results taken from patent US10517889B2, “Modulators of SMAD7 expression” (Ionis Pharmaceuticals, Inc., priority 2017, dated 2019).

Key:
dog SMAD7 mRNA = assay: Pharmacology: dog SMAD7 mRNA expression in liver, kidney, duodenum, ileum and colon after subcutaneous administration in beagle dogs (Example 8); type: in vivo; settings: 30 mg/kg subcutaneous, necropsy, normalized to HPRT1
Description: (§1) There were 4 animals per group.
The pharmacological activity of the Ionis oligonucleotides in dogs was assessed by measuring dog SMAD7 mRNA expression in liver, kidney, duodenum, ileum, and colon at necropsy. All the human ASOs used are complementary to dog SMAD7 mRNA.
Tissue samples from all dogs were analyzed for SMAD7 mRNA expression using the primer probe set RTS34649 (forward sequence […], designated SEQ ID NO: 2740; reverse sequence […], designated SEQ ID NO: 2741; probe sequence […], designated SEQ ID NO: 2742), which was normalized to mRNA levels of the housekeeping gene, HPRT1. One-way ANOVA with Dunnet's comparison test was used for statistical analysis.

[1] = Organ weights after oral gavage in beagle dogs (Example 12); settings: 200 mg oral gavage for 4 weeks, day 30
Description: Groups of 24-25 week old male beagle dogs were administered 200 mg Ionis human SMAD7 oligonucleotide by oral gavage once a week for 4 weeks. There were 4 animals per group. A control group of dogs received oral administration of distilled water. Dogs were sacrificed on day 30 approximately 48 hours after the final dose and organs and plasma were harvested for further analysis.

[2] = Hematology assays after oral gavage in CD-1 mice (Example 7); type: in vivo; design: RBC: unit not given here; settings: 500 mg/kg oral gavage once daily for 4 weeks
Description: (§2) Groups of 7-8 week old male CD-1 mice were given an oral gavage dose once daily for 4 weeks of 500 mg/kg of Ionis SMAD7 oligonucleotides. Each group contained 8 mice. One group of male CD-1 mice was administered saline by oral gavage daily.
Blood obtained from all mouse groups was measured by an ADVIA2120i hematology analyzer (Siemens, USA) for measurements of the various blood cells, as well as other hematology markers. None of the Ionis SMAD7 oligonucleotides caused changes in the levels of any of the hematology markers outside the expected range for antisense oligonucleotides.

[3] = Body and organ weights after subcutaneous administration in beagle dogs (Example 8); type: in vivo; settings: 30 mg/kg subcutaneous days 1, 3, 5, 8, 15, 22, 29, end of study
Description: as §1
Body weights as well as kidney, spleen, liver (with gall bladder), mesenteric lymph node, heart, and thymus weights were measured at the end of the study. […] Ionis SMAD7 oligonucleotides that caused any changes in organ weights outside the expected range for antisense oligonucleotides were excluded from further studies.

[4] = Hematology assays after subcutaneous administration in beagle dogs (Example 8); type: in vivo; settings: 30 mg/kg subcutaneous days 1, 3, 5, 8, 15, 22, 29
Description: as §1
Blood samples were collected from the cephalic vein or saphenous vein of each animal. About 0.5 mL of blood samples was put into tubes containing the potassium salt of EDTA. Blood obtained from all dog groups was measured using an ADVIA2120i hematology analyzer for measurements of the various blood cells, as well as other hematology markers.

murine Smad7 mRNA = assay: Dose-dependent inhibition of murine Smad7 mRNA in bEND cells, electroporation (Example 5, Study 2); type: cell-based, mouse; settings: electroporation; for % inhibition of SMAD7 mRNA expression: approximately 16 hours
How it was run: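 Mouse bEND cells electroporated with oligonucleotide at several doses and treated for approximately 16 hours. Smad7 mRNA quantified by real-time RT-PCR (primer probe set RTS1114), normalised to total RNA by RiboGreen. Reported as percent inhibition relative to untreated cells.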

[5] = Oligonucleotide concentrations in tissues by LC-MS/MS after oral gavage in CD-1 mice (Example 7); type: in vivo; settings: 500 mg/kg oral gavage once daily for 4 weeks, 48 hours after last dose
Description: as §2
Oligonucleotide concentrations were detected in various tissues by LC-MS/MS analysis. The greatest concentration was found in the kidney, followed by the colon.

[6] = Oligonucleotide concentration in liver and colon by LC-MS/MS after subcutaneous administration in CD-1 mice (Example 6); type: in vivo; settings: 50 mg/kg subcutaneously twice a week for 7 weeks, 48 hours after the last dose
Description: Groups of 8-9 week old male CD-1 mice were injected subcutaneously twice a week for 7 weeks with 50 mg/kg of Ionis oligonucleotides (100 mg/kg/week dose). Each group contained 4 mice. One group of male CD-1 mice was injected subcutaneously twice a week for 7 weeks with PBS. Plasma was collected for analysis on day 28.
Oligonucleotide concentrations in the liver and colon were analyzed using LC-MS/MS method.

## 798781 (CGTAAGATTCACAGCA; 3-10-3 cEt gapmer, further chemistry not given here) [compound 798781]
Dog SMAD7 mRNA
  % inhibition of SMAD7 mRNA expression (compared to control), Distal colon: 34%
  % inhibition of SMAD7 mRNA expression (compared to control), Duodenum: 0%
  % inhibition of SMAD7 mRNA expression (compared to control), Ileum: 0%
  % inhibition of Smad7 mRNA expression (compared to control), Kidney: 28%
  % inhibition of Smad7 mRNA expression (compared to control), Liver: 0%
  % inhibition of SMAD7 mRNA expression (compared to control), Proximal colon: 26%
[1]
  Kidney weight (% of control): 86 % of control
  Liver weight (% of control): 91 % of control
  Spleen weight (% of control): 102 % of control
[2]
  Basophils: 0.02 10^3/μL
  Eosinophils: 0.26 10^3/μL
  Hematocrit: 52.0%
  Hemoglobin: 15.2 g/dL
  Lymphocytes: 74.0%
  MCH: 15.1 pg
  MCHC: 29.1 g/dL
  MCV: 51.7 fL
  Monocytes: 0.18 10^3/μL
  Neutrophils: 18.0%
  RBC: 10.1
  Reticulocytes: 3.0%
  WBC: 5.7 10^3/μL
  platelets: 1099 10^3/μL
[3]
  Body weight: 6661 g
  Heart weight: 53.4 g
  Kidney weight: 40.0 g
  Liver weight: 242.9 g
  Mesenteric LN weight: 7.8 g
  Spleen weight: 26.4 g
  Thymus weight: 6.0 g
[4]
  Basophils: 0.5%
  Eosinophils: 2.7%
  Hematocrit: 48%
  Hemoglobin: 16.2 g/dL
  Lymphocytes: 34%
  MCH: 22.3 pg
  MCHC: 33.6 g/dL
  MCV: 67 fL
  Monocytes: 6.5%
  Neutrophils: 56%
  PLT: 191 ^3/μL
  RBC: 7.3 ^6/L
  Reticulocytes: 0.6%
  WBC: 7.3 ^3/μL
Murine Smad7 mRNA; 0.25 μM
  % inhibition of SMAD7 mRNA expression: 0%
Murine Smad7 mRNA; 0.74 μM
  % inhibition of SMAD7 mRNA expression: 0%
Murine Smad7 mRNA; 2.22 μM
  % inhibition of SMAD7 mRNA expression: 20%
Murine Smad7 mRNA; 6.67 μM
  % inhibition of SMAD7 mRNA expression: 33%
Murine Smad7 mRNA; 20.00 μM
  % inhibition of SMAD7 mRNA expression: 51%
Murine Smad7 mRNA
  IC50: 19.8 µM
[5]
  Oligonucleotide concentration, Colon: 4.4 µg/g
  Oligonucleotide concentration, Duodenum: 0.7 µg/g
  Oligonucleotide concentration, Ileum: 2.9 µg/g
  Oligonucleotide concentration, Kidney: 45.2 µg/g
  Oligonucleotide concentration, Liver: 2.9 µg/g
[6]
  Oligonucleotide concentration, Colon: 63 μg/g tissue
  Oligonucleotide concentration, Liver: 312 μg/g tissue

## 830025 (antisense TTTGTAAATCGAAAGC; 3-10-3 cEt gapmer, further chemistry not given here) [compound 830025]
Dog SMAD7 mRNA
  % inhibition of SMAD7 mRNA expression (compared to control), Distal colon: 3%
  % inhibition of SMAD7 mRNA expression (compared to control), Duodenum: 7%
  % inhibition of SMAD7 mRNA expression (compared to control), Ileum: 9%
  % inhibition of Smad7 mRNA expression (compared to control), Kidney: 25%
  % inhibition of Smad7 mRNA expression (compared to control), Liver: 0%
  % inhibition of SMAD7 mRNA expression (compared to control), Proximal colon: 24%
[1]
  Kidney weight (% of control): 99 % of control
  Liver weight (% of control): 79 % of control
  Spleen weight (% of control): 87 % of control
[2]
  Basophils: 0.01 10^3/μL
  Eosinophils: 0.08 10^3/μL
  Hematocrit: 52.4%
  Hemoglobin: 15.0 g/dL
  Lymphocytes: 77.6%
  MCH: 14.9 pg
  MCHC: 28.5 g/dL
  MCV: 52.3 fL
  Monocytes: 0.12 10^3/μL
  Neutrophils: 17.5%
  RBC: 10.1
  Reticulocytes: 3.2%
  WBC: 4.7 10^3/μL
  platelets: 1236 10^3/μL
[3]
  Body weight: 7403 g
  Heart weight: 60.5 g
  Kidney weight: 40.3 g
  Liver weight: 250.3 g
  Mesenteric LN weight: 10.9 g
  Spleen weight: 28.9 g
  Thymus weight: 8.3 g
[4]
  Basophils: 0.3%
  Eosinophils: 2.4%
  Hematocrit: 43%
  Hemoglobin: 13.9 g/dL
  Lymphocytes: 34%
  MCH: 21.7 pg
  MCHC: 32.5 g/dL
  MCV: 67 fL
  Monocytes: 8.2%
  Neutrophils: 55%
  PLT: 250 ^3/μL
  RBC: 6.4 ^6/L
  Reticulocytes: 1.2%
  WBC: 5.7 ^3/μL
Murine Smad7 mRNA; 0.25 μM
  % inhibition of SMAD7 mRNA expression: 15%
Murine Smad7 mRNA; 0.74 μM
  % inhibition of SMAD7 mRNA expression: 27%
Murine Smad7 mRNA; 2.22 μM
  % inhibition of SMAD7 mRNA expression: 51%
Murine Smad7 mRNA; 6.67 μM
  % inhibition of SMAD7 mRNA expression: 67%
Murine Smad7 mRNA; 20.00 μM
  % inhibition of SMAD7 mRNA expression: 77%
Murine Smad7 mRNA
  IC50: 2.7 µM
[5]
  Oligonucleotide concentration, Colon: 3.6 µg/g
  Oligonucleotide concentration, Duodenum: 0.7 µg/g
  Oligonucleotide concentration, Ileum: 1.9 µg/g
  Oligonucleotide concentration, Kidney: 21.5 µg/g
  Oligonucleotide concentration, Liver: 2.3 µg/g
[6]
  Oligonucleotide concentration, Colon: 39 μg/g tissue
  Oligonucleotide concentration, Liver: 77 μg/g tissue
